In ChEMBL document CHEMBL1201862, “PubChem BioAssay data set” (2004):
Activity calls are given as the source filed them.

Experiments:
[1] = target: T1, Type-1 angiotensin II receptor (Homo sapiens, UniProt P30556); test: agonist activity at AGTR1 – cell-based, uHTS hits, selectivity assay for APJ receptor agonist project, dose response (AID 488865); format: functional;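 also: beta-arrestin recruitment to AT1 measured by enzyme fragment complementation luminescence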
T1 sequence (P30556 whole entry): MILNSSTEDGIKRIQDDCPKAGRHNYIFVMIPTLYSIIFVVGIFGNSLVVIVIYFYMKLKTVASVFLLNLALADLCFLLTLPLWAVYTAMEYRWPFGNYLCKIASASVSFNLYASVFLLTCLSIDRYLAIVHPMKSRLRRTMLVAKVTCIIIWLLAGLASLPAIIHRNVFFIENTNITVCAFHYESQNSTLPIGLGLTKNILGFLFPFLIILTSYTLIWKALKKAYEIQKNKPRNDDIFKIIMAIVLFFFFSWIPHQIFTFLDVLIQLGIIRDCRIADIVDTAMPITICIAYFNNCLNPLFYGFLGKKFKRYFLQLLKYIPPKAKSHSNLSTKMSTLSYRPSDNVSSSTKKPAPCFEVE

[2] = target: SUMO-activating enzyme (Homo sapiens, UniProt Q9UBT2); test: blockers of UBC9-mediated SUMO conjugation – biochemical, AlphaScreen, SUMOylation inhibitor project, confirmation (AID 2018); format: functional
SUMO-activating enzyme, sequence (Q9UBE0 whole entry): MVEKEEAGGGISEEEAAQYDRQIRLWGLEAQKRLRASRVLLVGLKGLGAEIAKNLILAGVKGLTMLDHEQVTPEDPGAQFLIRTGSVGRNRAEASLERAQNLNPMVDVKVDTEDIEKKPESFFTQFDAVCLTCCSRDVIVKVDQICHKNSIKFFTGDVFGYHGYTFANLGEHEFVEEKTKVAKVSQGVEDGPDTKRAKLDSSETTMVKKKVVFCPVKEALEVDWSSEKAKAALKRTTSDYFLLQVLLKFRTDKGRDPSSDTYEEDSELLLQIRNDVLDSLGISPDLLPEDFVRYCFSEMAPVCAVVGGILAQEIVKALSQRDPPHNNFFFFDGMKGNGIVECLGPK
SUMO-activating enzyme, sequence (Q9UBT2 whole entry): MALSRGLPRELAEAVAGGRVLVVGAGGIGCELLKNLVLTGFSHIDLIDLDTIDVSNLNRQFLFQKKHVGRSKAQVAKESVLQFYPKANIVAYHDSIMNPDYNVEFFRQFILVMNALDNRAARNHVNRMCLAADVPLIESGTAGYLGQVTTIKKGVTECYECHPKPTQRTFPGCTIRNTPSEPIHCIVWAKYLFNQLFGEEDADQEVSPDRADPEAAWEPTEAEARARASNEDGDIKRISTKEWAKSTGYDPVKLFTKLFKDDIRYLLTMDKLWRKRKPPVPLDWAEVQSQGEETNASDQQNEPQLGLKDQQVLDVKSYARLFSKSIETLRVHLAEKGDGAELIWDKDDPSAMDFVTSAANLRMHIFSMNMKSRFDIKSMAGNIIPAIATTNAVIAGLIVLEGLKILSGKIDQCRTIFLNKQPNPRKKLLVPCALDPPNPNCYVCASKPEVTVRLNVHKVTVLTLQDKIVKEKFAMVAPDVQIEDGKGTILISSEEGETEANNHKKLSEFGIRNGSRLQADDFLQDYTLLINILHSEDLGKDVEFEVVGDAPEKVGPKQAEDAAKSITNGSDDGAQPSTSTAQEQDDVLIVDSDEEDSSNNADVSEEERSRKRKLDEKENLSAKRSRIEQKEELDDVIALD

[3] = target: T2, Dual specificity protein phosphatase 6 (Rattus norvegicus, UniProt Q64346); test: inhibition of rat DUSP6 enzyme activity – biochemical, in vitro, primary screen (AID 425)
T2 sequence (Q64346 whole entry): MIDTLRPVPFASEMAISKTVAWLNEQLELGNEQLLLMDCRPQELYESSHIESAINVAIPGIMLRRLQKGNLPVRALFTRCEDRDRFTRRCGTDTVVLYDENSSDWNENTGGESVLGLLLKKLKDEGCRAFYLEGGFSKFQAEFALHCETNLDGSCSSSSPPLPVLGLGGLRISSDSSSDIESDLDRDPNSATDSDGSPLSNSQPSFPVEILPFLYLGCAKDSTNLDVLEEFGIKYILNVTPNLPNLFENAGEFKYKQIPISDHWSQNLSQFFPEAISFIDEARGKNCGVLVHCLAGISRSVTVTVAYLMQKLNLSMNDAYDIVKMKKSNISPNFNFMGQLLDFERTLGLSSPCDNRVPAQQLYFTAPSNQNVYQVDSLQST

[4] = target: DNA dC->dU-editing enzyme APOBEC-3G (Homo sapiens, UniProt Q9HC16); test: Dose Response confirmation of small molecule APOBEC3G DNA Deaminase Inhibitors via a fluorescence-based single-stranded DNA deaminase assay. [Related pubchem assays (depositor defined):AID493012, AID493028]; format: functional
DNA dC->dU-editing enzyme APOBEC-3G, sequence (Q9HC16 whole entry): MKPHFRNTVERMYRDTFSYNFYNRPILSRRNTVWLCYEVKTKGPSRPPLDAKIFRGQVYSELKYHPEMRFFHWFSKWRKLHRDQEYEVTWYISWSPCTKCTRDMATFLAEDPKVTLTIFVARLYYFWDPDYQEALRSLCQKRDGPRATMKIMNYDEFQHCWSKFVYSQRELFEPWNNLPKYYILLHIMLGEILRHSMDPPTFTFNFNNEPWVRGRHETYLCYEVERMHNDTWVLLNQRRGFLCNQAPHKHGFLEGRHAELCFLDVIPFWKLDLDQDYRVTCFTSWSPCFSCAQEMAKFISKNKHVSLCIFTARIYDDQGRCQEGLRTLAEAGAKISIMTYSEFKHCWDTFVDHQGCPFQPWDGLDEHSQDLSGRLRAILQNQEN

[5] = target: T3, Dual specificity protein phosphatase 3 (Homo sapiens, UniProt P51452); test: VHR1 phosphatase inhibitors, primary screen, biochemical, absorbance, uHTS (AID 1654)
T3 sequence (P51452 whole entry): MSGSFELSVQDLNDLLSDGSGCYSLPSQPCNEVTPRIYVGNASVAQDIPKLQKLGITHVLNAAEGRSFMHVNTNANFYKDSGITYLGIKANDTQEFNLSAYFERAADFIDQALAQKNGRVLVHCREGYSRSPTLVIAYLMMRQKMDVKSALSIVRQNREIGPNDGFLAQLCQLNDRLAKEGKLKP

[6] = target: T3, Dual specificity protein phosphatase 3; test: VHR1 phosphatase inhibitors, biochemical (AID 1878)
[7] = Trypanosoma cruzi growth suppression in host cells – NIH3T3 host cells, beta-gal luminescence, confirmation (AID 2044); format: functional, cell-based;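 also: intracellular parasites grown in NIH/3T3 mouse fibroblasts as host cells; luminescent beta-galactosidase reporter signal from transgenic T. cruzi replicating inside host cells; inhibitors lower the luminescence signal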
[8] = system: Vero; test: mammalian cell viability reduction – secondary assay, cytotoxicity control for West Nile virus antiviral project, dose response (AID 1650); format: functional; conditions: Chlorocebus sabaeus
[9] = decrease of insulin promoter-GFP reporter – imaging, high-content screening, mouse beta cells (AID 1628); format: functional; conditions: MIN6
[10] = MIN6 cell viability loss – mouse insulinoma, cytotoxicity control, dose response (AID 2122); format: functional;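 also: confirmatory high-throughput counterscreen run to flag cytotoxic compounds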
[11] = target: Paired box protein Pax-8 (Homo sapiens, UniProt Q06710); test: PAX8 transcriptional activity inhibition in RMG-I – RMG-I cells, luciferase, cherry-pick, dose response (AID 687027); format: functional, cell-based;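 also: luciferase reporter driven by Pax8 target thyroperoxidase promoter measured by SteadyGlo luminescence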
Paired box protein Pax-8, sequence (Q06710 whole entry): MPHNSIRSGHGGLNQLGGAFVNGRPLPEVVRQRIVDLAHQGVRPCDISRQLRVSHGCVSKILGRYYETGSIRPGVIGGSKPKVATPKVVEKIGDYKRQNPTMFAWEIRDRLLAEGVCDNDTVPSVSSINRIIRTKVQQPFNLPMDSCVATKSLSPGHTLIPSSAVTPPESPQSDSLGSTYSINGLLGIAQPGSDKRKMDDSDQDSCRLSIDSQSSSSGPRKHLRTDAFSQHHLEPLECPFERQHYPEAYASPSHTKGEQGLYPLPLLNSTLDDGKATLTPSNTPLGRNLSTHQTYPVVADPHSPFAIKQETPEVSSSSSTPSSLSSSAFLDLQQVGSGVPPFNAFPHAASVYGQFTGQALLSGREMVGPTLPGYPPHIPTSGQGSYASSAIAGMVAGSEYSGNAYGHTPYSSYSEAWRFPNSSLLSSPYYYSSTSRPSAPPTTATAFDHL

[12] = NIH3T3 cell viability loss – ATP luminescence, mouse fibroblasts, counter-screen, dose response (AID 2010); format: functional, cell-based;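 also: cells exposed to compound for about 90 hours before reading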
[13] = target: T4, Bcl-2-related protein A1 (Mus musculus, UniProt Q07440); format: functional;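 also: confirmatory dose–response counterscreen on Bfl-1, used to check hits from a UBC13 polyubiquitin inhibitor campaign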
T4 sequence (Q07440 whole entry): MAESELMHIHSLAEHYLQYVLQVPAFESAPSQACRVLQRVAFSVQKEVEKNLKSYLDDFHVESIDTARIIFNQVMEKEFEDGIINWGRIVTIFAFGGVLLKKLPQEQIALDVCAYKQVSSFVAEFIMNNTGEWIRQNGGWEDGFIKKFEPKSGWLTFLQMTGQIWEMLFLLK

[14] = target: T5, Ubiquitin-conjugating enzyme E2 N (Homo sapiens, UniProt P61088); format: functional
T5 sequence (P61088 whole entry): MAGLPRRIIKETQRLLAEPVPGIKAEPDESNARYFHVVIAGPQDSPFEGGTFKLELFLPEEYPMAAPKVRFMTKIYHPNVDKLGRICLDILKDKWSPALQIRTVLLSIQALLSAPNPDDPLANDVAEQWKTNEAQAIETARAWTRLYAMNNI

[15] = target: T5, Ubiquitin-conjugating enzyme E2 N; format: functional; remark: listed apart in the source
[16] = target: T6, Alkaline phosphatase, tissue-nonspecific isozyme (Homo sapiens, UniProt P05186); test: potency against alkaline phosphatase TNAP – biochemical, luminescent, dose response, SAR follow-up (AID 1056)
T6 sequence (P05186 whole entry): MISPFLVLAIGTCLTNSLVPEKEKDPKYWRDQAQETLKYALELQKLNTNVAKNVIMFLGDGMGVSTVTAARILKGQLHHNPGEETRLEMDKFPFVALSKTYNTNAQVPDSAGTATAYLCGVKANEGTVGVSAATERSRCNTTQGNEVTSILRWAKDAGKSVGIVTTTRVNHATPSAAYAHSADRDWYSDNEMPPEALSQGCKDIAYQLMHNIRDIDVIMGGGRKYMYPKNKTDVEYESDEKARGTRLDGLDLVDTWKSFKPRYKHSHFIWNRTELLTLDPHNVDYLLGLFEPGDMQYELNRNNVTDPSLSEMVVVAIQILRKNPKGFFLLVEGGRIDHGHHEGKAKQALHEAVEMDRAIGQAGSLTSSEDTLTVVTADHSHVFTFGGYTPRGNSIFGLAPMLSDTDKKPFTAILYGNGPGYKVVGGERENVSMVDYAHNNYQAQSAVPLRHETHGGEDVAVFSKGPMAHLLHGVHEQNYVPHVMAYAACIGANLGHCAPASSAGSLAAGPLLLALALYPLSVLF

[17] = target: Alkaline phosphatase, placental type (Homo sapiens, UniProt P05187); test: human placental alkaline phosphatase inhibition – biochemical, luminescence, confirmation (AID 1512); format: functional
Alkaline phosphatase, placental type, sequence (P05187 whole entry): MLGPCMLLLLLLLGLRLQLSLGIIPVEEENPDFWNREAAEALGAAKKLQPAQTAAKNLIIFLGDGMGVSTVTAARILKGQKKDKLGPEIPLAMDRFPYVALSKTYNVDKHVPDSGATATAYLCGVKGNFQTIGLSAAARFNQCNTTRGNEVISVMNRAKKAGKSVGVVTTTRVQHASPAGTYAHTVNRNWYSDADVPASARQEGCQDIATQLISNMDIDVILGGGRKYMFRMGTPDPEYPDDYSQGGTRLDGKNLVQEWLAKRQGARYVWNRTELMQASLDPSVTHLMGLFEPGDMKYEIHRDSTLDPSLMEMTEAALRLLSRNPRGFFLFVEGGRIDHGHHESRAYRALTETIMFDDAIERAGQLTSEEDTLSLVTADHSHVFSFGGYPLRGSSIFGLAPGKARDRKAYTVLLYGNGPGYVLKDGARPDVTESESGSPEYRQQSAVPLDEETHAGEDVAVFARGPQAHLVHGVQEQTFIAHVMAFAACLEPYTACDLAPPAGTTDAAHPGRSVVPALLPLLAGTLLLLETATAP

[18] = target: Glyceraldehyde-3-phosphate dehydrogenase (Homo sapiens, UniProt P04406)
Glyceraldehyde-3-phosphate dehydrogenase, sequence (P04406 whole entry): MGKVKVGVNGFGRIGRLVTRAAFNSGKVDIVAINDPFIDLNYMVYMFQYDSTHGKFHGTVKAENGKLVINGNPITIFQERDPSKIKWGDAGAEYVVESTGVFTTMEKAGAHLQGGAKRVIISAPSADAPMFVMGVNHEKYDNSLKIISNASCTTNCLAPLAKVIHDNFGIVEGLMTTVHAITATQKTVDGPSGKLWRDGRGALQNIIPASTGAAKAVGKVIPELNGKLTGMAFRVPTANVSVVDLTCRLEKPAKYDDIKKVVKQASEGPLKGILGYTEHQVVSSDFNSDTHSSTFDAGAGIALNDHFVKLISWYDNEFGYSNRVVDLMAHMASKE

[19] = target: Peroxisome proliferator-activated receptor gamma/Nuclear receptor coactivator 3 (Homo sapiens, UniProt P37231); test: TR-FRET dose response biochemical High Throughput Screening assay for agonists of the steroid receptor coactivator 3 (SRC-3) recruitment by the peroxisome proliferator-activated receptor gamma (PPAR gamma): non-selective agonists. [Related pubchem assays: 1301 (Confirmation screen.), 1048 (Primary screen.)]; format: functional
[20] = target: Peroxisome proliferator-activated receptor gamma/Nuclear receptor coactivator 2 (Homo sapiens, UniProt P37231); test: (§1) TR-FRET dose response biochemical High Throughput Screening assay for agonists of the steroid receptor coactivator 2 (SRC-2) recruitment by the peroxisome proliferator-activated receptor gamma (PPAR gamma): non-selective agonists. [Related pubchem assays: 1297, 1032 ]; format: functional
[21] = target: Peroxisome proliferator-activated receptor gamma/Nuclear receptor coactivator 1 (Homo sapiens, UniProt P37231); test: as §1, with “1 (SRC-1)” for “2 (SRC-2)”, “assays (depositor defined):AID1300, AID1808, AID504735, AID631]” for “assays: 1297, 1032 ]”; format: protein assay
[22] = target: Lysine-specific demethylase 4C (Homo sapiens, UniProt Q9H3R0); test: inhibition of JMJD2C H3K9me3 demethylation – biochemical, DELFIA europium, cherry-picked samples, dose response (AID 488835); format: functional
Lysine-specific demethylase 4C, sequence (Q9H3R0 whole entry): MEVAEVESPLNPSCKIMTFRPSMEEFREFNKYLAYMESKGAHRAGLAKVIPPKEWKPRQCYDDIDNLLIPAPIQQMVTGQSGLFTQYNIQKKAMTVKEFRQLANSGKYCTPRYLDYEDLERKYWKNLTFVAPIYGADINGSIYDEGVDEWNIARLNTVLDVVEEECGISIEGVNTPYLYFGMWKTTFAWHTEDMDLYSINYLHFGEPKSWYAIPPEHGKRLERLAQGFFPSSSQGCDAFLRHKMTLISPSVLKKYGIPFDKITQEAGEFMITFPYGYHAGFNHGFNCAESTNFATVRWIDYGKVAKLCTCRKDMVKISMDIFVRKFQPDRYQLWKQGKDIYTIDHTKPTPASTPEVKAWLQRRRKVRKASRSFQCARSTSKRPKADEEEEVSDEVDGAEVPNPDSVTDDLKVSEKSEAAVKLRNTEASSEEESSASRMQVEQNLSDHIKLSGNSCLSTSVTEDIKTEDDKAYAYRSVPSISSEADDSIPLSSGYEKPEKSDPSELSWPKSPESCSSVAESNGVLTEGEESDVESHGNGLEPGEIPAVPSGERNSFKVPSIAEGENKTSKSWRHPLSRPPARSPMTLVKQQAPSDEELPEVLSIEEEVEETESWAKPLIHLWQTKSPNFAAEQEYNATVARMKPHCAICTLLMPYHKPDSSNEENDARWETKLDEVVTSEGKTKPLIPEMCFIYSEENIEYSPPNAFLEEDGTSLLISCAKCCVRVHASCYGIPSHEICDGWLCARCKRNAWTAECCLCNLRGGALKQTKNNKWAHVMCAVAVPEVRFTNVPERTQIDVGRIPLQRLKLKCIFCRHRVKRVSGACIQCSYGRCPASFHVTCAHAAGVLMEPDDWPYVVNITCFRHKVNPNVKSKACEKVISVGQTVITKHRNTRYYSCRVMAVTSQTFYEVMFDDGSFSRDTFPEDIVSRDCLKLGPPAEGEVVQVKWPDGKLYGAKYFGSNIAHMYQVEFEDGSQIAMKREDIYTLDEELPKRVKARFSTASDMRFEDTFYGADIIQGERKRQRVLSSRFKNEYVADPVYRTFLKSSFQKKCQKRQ

[23] = A Cell Based Secondary Assay To Explore Cytotoxicity of Compounds that Sensitize Mycobacterium Tuberculosis to Beta-Lactam Antibiotics.; format: functional
[24] = viability of uninfected HEp-2 cells – cell-based, HTS, cytotoxicity control for RSV inhibitor project, dose response (AID 2410); format: functional; conditions: human respiratory syncytial virus
[25] = system: HEK293; test: cells; format: functional, cell-based; conditions: Homo sapiens
[26] = system: HEK293; test: inhibition of NOD1-driven NF-kB reporter – cell-based, luminescence, uHTS, primary screen (AID 1578); format: functional; conditions: Homo sapiens
[27] = system: HEK293; test: NOD2 signaling inhibitors in MDP-stimulated cells, cell-based, uHTS, luminescence (AID 2001); format: functional; conditions: Homo sapiens
[28] = system: HEK293; test: cells; format: functional, cell-based; conditions: Homo sapiens; remark: listed apart in the source
[29] = system: HEK293; test: cells; format: functional, cell-based; conditions: Homo sapiens; remark: listed apart in the source
[30] = target: Nucleotide-binding oligomerization domain-containing protein 2 (Homo sapiens, UniProt Q9HC29); test: inhibition of NOD2-driven NF-kB reporter – cell-based, luminescence, uHTS, HEK293 (AID 1566); format: functional
[31] = target: Coagulation factor XII (Homo sapiens, UniProt P00748); format: functional;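 also: activated factor XIIa alpha cleaving a fluorogenic AMC peptide substrate; inhibitor potency from loss of enzyme activity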
Coagulation factor XII, sequence (P00748 20-372 limits assumed): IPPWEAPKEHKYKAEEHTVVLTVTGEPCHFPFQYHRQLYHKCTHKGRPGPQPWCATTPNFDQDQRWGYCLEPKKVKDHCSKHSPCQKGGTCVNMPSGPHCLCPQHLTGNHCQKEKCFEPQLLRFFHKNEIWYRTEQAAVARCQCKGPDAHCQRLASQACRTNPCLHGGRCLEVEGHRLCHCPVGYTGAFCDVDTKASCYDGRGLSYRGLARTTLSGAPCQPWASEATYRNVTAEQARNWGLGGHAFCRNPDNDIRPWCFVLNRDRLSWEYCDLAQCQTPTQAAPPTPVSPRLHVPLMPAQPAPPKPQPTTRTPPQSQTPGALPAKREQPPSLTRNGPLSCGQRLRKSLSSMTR
Coagulation factor XII, sequence (P00748 373-615 limits assumed): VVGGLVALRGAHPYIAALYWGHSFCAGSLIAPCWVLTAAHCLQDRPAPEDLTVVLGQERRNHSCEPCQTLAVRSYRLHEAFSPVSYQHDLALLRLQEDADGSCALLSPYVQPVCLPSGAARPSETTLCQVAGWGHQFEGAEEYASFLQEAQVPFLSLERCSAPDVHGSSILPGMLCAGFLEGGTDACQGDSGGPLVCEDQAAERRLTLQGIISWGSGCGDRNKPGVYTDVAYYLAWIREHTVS

## CCC(C)NC(=O)CSC1=Nc2ccccc2C2=NC(CC(=O)NCc3ccccc3)C(=O)N12 (centres undefined)
[1]
  EC50: > 100 µM (inactive)

## O=C(Nc1ccc(N2C(=O)C3C4C=CC(C4)C3C2=O)cc1)Nc1cccnc1 (centres undefined)
[2]
  IC50: > 100 µM (inactive)

## COC(=O)c1sc(NC(=O)c2cc(-c3ccccc3)nc3ccccc23)c(C#N)c1C
[3]
  IC50: > 158 µM (not active)
[4]
  IC50: 28.6 µM (active)
[5]
  IC50: 1.15 µM (active)
[6]
  IC50: 2.08 µM (active)

## O=c1cc(C(Cl)(Cl)Cl)oc2c1ccc1ccccc12
[7]
  EC50: 0.893 µM (active)
[8]
  CC50: 5.35 µM (active)
[9]
  IC50: 1.78 µM (active)
[10]
  IC50: 1.28 µM (active)
[11]
  AC50: 2.66 µM (active)
[12]
  EC50: 3.32 µM (active)

## NC(=S)N=Nc1c(O)n(CCCl)c2ccccc12
[13]
  IC50: > 20 µM (inactive)
[14]
  IC50: 10.8 µM (active)
[15]
  IC50: 18 µM (active)

## COc1ccccc1Cc1nc(N)nn1-c1ccccc1
[16]
  IC50: > 100 µM (inactive)
[17]
  IC50: > 100 µM (inactive)
[18]
  IC50: > 100 µM (not active)

## O=C(O)c1cc(-c2ccc(Cl)cc2Cl)[nH]n1
[16]
  IC50: 0.392 µM (active)
[17]
  IC50: > 100 µM (inactive)
[18]
  IC50: > 100 µM (not active)

## CCn1c(=O)cc(SCC(=O)N2CCN(C3CCCCC3)CC2)c2ccccc21
[13]
  IC50: > 20 µM (inactive)
[19]
  EC50: > 79.4 µM (not active)
[14]
  IC50: > 20 µM (inactive)
[20]
  EC50: > 79.4 µM (not active)
[21]
  EC50: > 79.4 µM (inactive)
[15]
  IC50: 14.5 µM (active)

## Cc1cc(C=C2C(=O)NC(=S)NC2=O)c(C)n1-c1ccc2c(c1)OCO2
[22]
  AC50: 9.41 µM (active)
[23]
  CC50: > 40 µM (active)
[24]
  CC50: 14.3 µM (active)

## Brc1ccc2ncnc(NCc3ccco3)c2c1
[25]
  IC50: 4.57 µM (active)
[26]
  EC50: 3.41 µM (active)
[27]
  IC50: 5.54 µM (active)
[28]
  IC50: > 20 µM (inactive)
[29]
  IC50: > 20 µM (inactive)
[30]
  EC50: 6.5 µM (active)

## COc1ccc(NC(NC(=O)c2cccnc2)C(Cl)(Cl)Cl)cc1 (centres undefined)
[31]
  IC50: > 50 µM (inactive)

## CCOC(=O)c1sc(N(C)C(C)=O)nc1C
[31]
  IC50: > 50 µM (inactive)

## Cc1ccc(/C=N/NC(=O)CSc2nnc(-c3ccc(Cl)cc3)n2-c2ccccc2)o1
[1]
  EC50: > 100 µM (inactive)
